Results on three compounds are retold here after patent US12458709B2, “Compositions and methods for imaging a cell” (NOVOCURE GMBH, priority 2019, dated 2025).

The subject of the assay is clathrin-dependent pathway or macro-pinocytosis pathway. As to the kind of experiment: Effect of endocytosis pathway inhibitors on BTNP accumulation in response to TTFields. It is filed as cell-based. As to conditions: specific inhibitors of clathrin-dependent or macro-pinocytosis pathway.
As to `N=C(N)NC(=O)c1nc(Cl)c(N)nc1N` [amiloride], the “effect on accumulation of BTNPs in cytoplasm in response to TTFields” value was “did not modulate”. Turning to `CN(C)CCCN1c2ccccc2Sc2ccc(Cl)cc21` [chlorpromazine], the “effect on accumulation of BTNPs in cytoplasm in response to TTFields” value is “did not modulate”. Under `C=C1[C@@H](C)[C@H]2[C@H](Cc3ccccc3)NC(=O)[C@]23[C@H](OC(C)=O)/C=C/[C@@](C)(O)C(=O)[C@@H](C)C/C=C/[C@H]3[C@@H]1O` [cytochalasin D] stands “did not modulate”.
